From BindingDB's records for patent US20250161319 (Asclepieion Pharmaceutical, 2025)
pIC50: −log10 of the molar value.

These molecules were tested against Mitogen-activated protein kinase kinase kinase kinase 1 (Homo sapiens, UniProt Q92918) (assay: Tests of Compounds for Inhibiting HPK1 Kinase Activity In Vitro).
Protocol: The compound dilution was transferred into 384-well plate by using a pipette, afterwards, the 384-well plate was sealed and centrifuged at 1000 g for 1 min. 2-fold concentration of HPK1 solution was prepared in the kinase buffer, and then 2.5 μL of the prepared 2-fold concentration of HPK1 solution was added into the 384 wells, centrifuged at 1000 g for 30 s, and incubated for 10 min at room temperature. A mixture of 2-fold concentration of MBP and ATP was prepare in the kinase buffer, and […] of prepared mixture of 2-fold concentration of MBP and ATP was added into the above reaction system for the reaction, centrifuged at 1000 g for 30 s, and then incubated at room temperature for 1 h, 5 μL of ADP-Glo reagent was added into the reaction system, and incubated at room temperature for 40 min. 10 μL of kinase detection reagent was added and incubated at room temperature for 40 min.

Sequence of Mitogen-activated protein kinase kinase kinase kinase 1 (Q92918 whole entry): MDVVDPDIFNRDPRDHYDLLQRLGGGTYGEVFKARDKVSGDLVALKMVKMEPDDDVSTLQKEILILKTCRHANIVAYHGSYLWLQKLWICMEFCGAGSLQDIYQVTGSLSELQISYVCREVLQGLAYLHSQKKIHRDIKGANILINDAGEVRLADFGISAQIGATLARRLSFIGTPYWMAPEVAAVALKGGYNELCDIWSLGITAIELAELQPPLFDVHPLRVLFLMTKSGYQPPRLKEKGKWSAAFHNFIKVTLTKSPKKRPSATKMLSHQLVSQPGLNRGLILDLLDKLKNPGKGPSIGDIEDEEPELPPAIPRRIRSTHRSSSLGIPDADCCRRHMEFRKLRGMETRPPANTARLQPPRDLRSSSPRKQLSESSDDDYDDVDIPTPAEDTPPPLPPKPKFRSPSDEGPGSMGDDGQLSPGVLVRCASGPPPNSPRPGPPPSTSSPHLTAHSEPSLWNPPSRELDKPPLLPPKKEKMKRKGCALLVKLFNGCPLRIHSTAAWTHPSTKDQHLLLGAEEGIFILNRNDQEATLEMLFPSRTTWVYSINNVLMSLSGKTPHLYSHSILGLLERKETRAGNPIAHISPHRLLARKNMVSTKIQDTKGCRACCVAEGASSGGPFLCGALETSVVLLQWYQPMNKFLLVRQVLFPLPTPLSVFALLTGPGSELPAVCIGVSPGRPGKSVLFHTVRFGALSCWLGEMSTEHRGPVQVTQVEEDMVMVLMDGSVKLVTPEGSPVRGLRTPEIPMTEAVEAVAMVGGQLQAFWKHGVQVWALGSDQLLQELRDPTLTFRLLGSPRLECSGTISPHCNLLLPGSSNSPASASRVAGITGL

Row | Compound | pIC50
1 | CCn1cccc1-c1cc2cc(NC(=O)C3CCC(F)CC3)ncc2c(N)c1F (configuration not stated) [US20250161319, Example 9] | > 6.52
2 | Cn1cccc1-c1cc2cc(NC(=O)C3CC3F)ncc2c(F)c1C#N (configuration not stated) [US20250161319, Example 10] | < 6.52
3 | CN1CCN(c2ccc(C(=O)Nc3cc4cc(-c5cccn5C)c(F)c(N)c4cn3)cc2)CC1 [US20250161319, Example 7] | > 6.52

Now from value to molecule:

Row | pIC50 | Compound
4 | > 7.30 | CC(C)n1cccc1-c1cc2cc(NC(=O)C3CC3F)ncc2c(N)c1F (configuration not stated) [US20250161319, Example 3]
5 | > 7.30 | C=Cn1cccc1-c1cc2cc(NC(=O)C3CC3F)ncc2c(N)c1F (configuration not stated) [US20250161319, Example 4]
6 | > 7.30 | CCn1cccc1-c1cc2cc(NC(=O)C3CC3F)ncc2c(N)c1F (configuration not stated) [US20250161319, Example 2]
7 | > 7.00 | Cn1cccc1-c1cc2cc(NC(=O)c3ccc(N4CCNCC4)cc3)ncc2c(N)c1F [US20250161319, Example 6]
